The species entered for assay [1] is Cavia porcellus. The assay can be described thus: Increase in [Ca2+] efflux from guinea pig pancreatic acinar cells measured for 5 mins relative to control. It is filed as functional.
Assay [2] is described as follows: Increase in [Ca2+] efflux from guinea pig pancreatic acinar cells at 10^-8 M assessed per minute relative to control. It is filed as functional, Cavia porcellus.
Assay [3] is filed under the species Cavia porcellus. The assay can be described thus: Increase in [Ca2+] efflux from guinea pig pancreatic acinar cells at 3 x 10^-11 M measured for 5 mins relative to control. It is filed as functional.

The results in this text go back to ChEMBL document CHEMBL3244372, “Cholecystokinin (pancreozymin). 3. Synthesis and properties of an analogue of the C-terminal heptapeptide with serine sulfate replacing tyrosine sulfate” (1977).

Active and inactive are the calls of the source. The calls are words filed in the database; no cut-off is given here. Square brackets hold non-standard residues; d marks the D form. Peptide text beside a SMILES is read from it. sY = N[C@@H](Cc1ccc(OS(=O)(=O)O)cc1)C(=O)O

With `CSCC[C@H](NC(=O)[C@H](Cc1c[nH]c2ccccc12)NC(=O)CNC(=O)[C@H](CCSC)NC(=O)[C@@H](N)COS(=O)(=O)O)C(=O)N[C@@H](CC(=O)O)C(=O)N[C@@H](Cc1ccccc1)C(N)=O`, the outcome in assay [1] was Active.

For `CSCC[C@H](NC(=O)[C@H](Cc1c[nH]c2ccccc12)NC(=O)CNC(=O)[C@H](CCSC)NC(=O)[C@@H](N)Cc1ccc(OS(=O)(=O)O)cc1)C(=O)N[C@@H](CC(=O)O)C(=O)N[C@@H](Cc1ccccc1)C(N)=O` (H-[sY]MGWMDF-NH2), the Activity in assay [2] worked out at 26.2%. The outcome in assay [3] and in assay [1] was Active.

As for `CSCC[C@H](NC(=O)[C@H](Cc1c[nH]c2ccccc12)NC(=O)CNC(=O)[C@H](CCSC)NC(=O)[C@@H](N)CO)C(=O)N[C@@H](CC(=O)O)C(=O)N[C@@H](Cc1ccccc1)C(N)=O` (H-SMGWMDF-NH2), the result in assay [1] was Active.

For `CSCC[C@H](NC(=O)[C@H](Cc1c[nH]c2ccccc12)NC(=O)CNC(=O)[C@H](CCSC)NC(=O)[C@@H](N)Cc1ccc(O)cc1)C(=O)N[C@@H](CC(=O)O)C(=O)N[C@@H](Cc1ccccc1)C(N)=O` (H-YMGWMDF-NH2), the outcome in assay [1] was Active.
